From patent publication US9598440B2, “Inhibitors of IRAK4 activity” (MERCK SHARP & DOHME CORP., priority 2012, dated 2017) come the findings set out here.

pIC50: −log10 of the molar value.

The target in this experiment is IRAK4 (Homo sapiens (Human), UniProt Q9NWZ3). As to the kind of experiment: Determination of IRAK4 kinase activity (IMAP fluorescence polarization, phosphorylation of fluorescent peptide substrate). The format is biochemical. Conditions: 0.5 nM GST tagged IRAK4, 100 nM peptide substrate RP7030, 100 μM ATP, 30 minutes at 25° C. How it is done: The kinase activity of IRAK4 is determined by its ability to catalyze the phosphorylation of a fluorescent polypeptide substrate. The extent of phosphorylation is measured using IMAP technology (Molecular Devices) where the phosphorylated fluorescent substrate binds to the large M(III)-based nanoparticles which reduces the rotational speed of the substrate and thus increases its fluorescent polarization (FP).
Chain of IRAK4 (Q9NWZ3 whole entry): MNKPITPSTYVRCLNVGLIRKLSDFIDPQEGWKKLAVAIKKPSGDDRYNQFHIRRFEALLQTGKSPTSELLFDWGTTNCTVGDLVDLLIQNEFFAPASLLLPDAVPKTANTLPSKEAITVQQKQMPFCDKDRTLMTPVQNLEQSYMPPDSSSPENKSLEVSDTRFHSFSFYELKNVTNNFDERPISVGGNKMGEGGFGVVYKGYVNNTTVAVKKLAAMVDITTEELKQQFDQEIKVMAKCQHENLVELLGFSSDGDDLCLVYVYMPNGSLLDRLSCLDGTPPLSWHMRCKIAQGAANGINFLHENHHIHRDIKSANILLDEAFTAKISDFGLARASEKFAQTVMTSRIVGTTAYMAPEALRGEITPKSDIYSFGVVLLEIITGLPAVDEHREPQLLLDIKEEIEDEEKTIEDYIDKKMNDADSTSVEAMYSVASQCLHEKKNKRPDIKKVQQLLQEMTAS
Procedure: A 20 μl reaction mixture contains 10 mM TriHCl, pH 7.2, 0.5 nM GST tagged IRAK4 (SignalChem), 100 nM fluorescent peptide substrate (RP7030, Molecular Devices), 100 μM ATP, 1 mM DTT, 1 mM MgCl2, and 0.01% Tween 20. The reaction is initiated by the addition of ATP. After incubation for 30 minutes at 25° C., 60 μl of Progressive IMAP Reagent (Molecular Devices) is added to stop the reaction. Change in RP7030's FP is determined by a FP reader (Analyst HT, LJL BioSystems). Analytical LCMS Conditions: • Condition A: Phenomenex Luna C18 (4.6×250 mm), 95:5 to 5:95 water:MeCN (0.05% TFA), over 10 min, hold 6 min. • Condition B: Agilent SBC (3.0×50 mm), solvent A: H20-0.1% TFA; • solvent B: ACN-0.1% TFA; GRADIENT TABLE: 0 min:10% B, 0.3 min: 10% B, 1.5 min: 95% B, 2.70 min: 95% B, 2.76 min: 10% B, stop time 3.60 min.
`CN1CCCC(Nc2ncc(-c3nc4ccccc4s3)c(N[C@@H]3C[C@H](CO)[C@@H](O)[C@H]3O)n2)C1` (mixture of isomers) [Example 32, (1R,2S,3R,5R)-3-((5-(benzo[d]thiazol-2-yl)-2-(((RS)-1-methylpiperidin-3-yl)amino)pyrimidin-4-yl)amino)-5-(hydroxymethyl)cyclopentane-1,2-diol] had a pIC50 of 6.03. The result for `OC[C@H]1C[C@@H](Nc2nc(NC3CCCNC3)ncc2-c2nc3ccccc3s2)[C@H](O)[C@@H]1O` (mixture of isomers) [Example 47, (1R,2S,3R,5R)-3-((5-(benzo[d]thiazol-2-yl)-2-((RS)-piperidin-3-ylamino)pyrimidin-4-yl)amino)-5-(hydroxymethyl)cyclopentane-1,2-diol] reads 5.49. The result for `OC[C@H]1C[C@@H](Nc2nc(NC3CCOC3)ncc2-c2nc3ccccc3s2)[C@H](O)[C@@H]1O` (mixture of isomers) [Example 48, (1R,2S,3R,5R)-3-((5-(benzo[d]thiazol-2-yl)-2-(((RS)-tetrahydrofuran-3-yl)amino)pyrimidin-4-yl)amino)-5-(hydroxymethyl)cyclopentane-1,2-diol] reads 5.80; that for `OC[C@H]1C[C@@H](Nc2nc(NC3CCCOC3)ncc2-c2nc3ccccc3s2)[C@H](O)[C@@H]1O` (mixture of isomers) [Example 49, (1R,2S,3R,5R)-3-((5-(benzo[d]thiazol-2-yl)-2-(((RS)-tetrahydro-2H-pyran-3-yl)amino)pyrimidin-4-yl)amino)-5-(hydroxymethyl)cyclopentane-1,2-diol], 5.83; that for `OC[C@H]1C[C@@H](Nc2nc(NC3CCNC3)ncc2-c2nc3ccccc3s2)[C@H](O)[C@@H]1O` (mixture of isomers) [Example 51, (1R,2S,3R,5R)-3-((5-(benzo[d]thiazol-2-yl)-2-((RS)-pyrrolidin-3-ylamino)pyrimidin-4-yl)amino)-5-(hydroxymethyl)cyclopentane-1,2-diol], 5.86.

`Cc1cc(Nc2ncc(-c3ccc4ccccc4n3)c(N[C@@H]3CC(C(C)(C)O)[C@@H](O)[C@H]3O)n2)cc(C)n1` (stereo in doubt) [Example 111, 6-(((1R,2S,3R,4R)-2,3-dihydroxy-4-(2-hydroxypropan-2-yl)cyclopentyl)amino)-2-((2,6-dimethylpyridin-4-yl)amino)-5-(quinolin-2-yl)pyrimidine] showed a pIC50 of 9.70.

In turn, `COc1cc(Nc2ncc(-c3ccc4ccccc4n3)c(N[C@@H]3CC(C(C)(C)O)[C@@H](O)[C@H]3O)n2)ccn1` (stereo in doubt) [Example 112, 6-(((1R,2S,3R,4R)-2,3-dihydroxy-4-(2-hydroxypropan-2-yl)cyclopentyl)amino)-2-((2-methoxypyridin-4-yl)amino)-5-(quinolin-2-yl)pyrimidine] gave a pIC50 of 8.40.

`CC(C)(O)C1C[C@@H](Nc2nc(Nc3cccc(C#N)c3)ncc2-c2nc3ccccc3s2)[C@H](O)[C@@H]1O` (stereo in doubt) [Example 115, 5-(benzo[d]thiazol-2-yl)-2-((3-cyanophenyl)amino)-6-(((1R,2S,3R,4R)-2,3-dihydroxy-4-(2-hydroxypropan-2-yl)cyclopentyl)amino)pyrimidine] gave a negative logarithm of the IC50 (pIC50) of 7.44. Then `CC(C)Oc1cc(Nc2ncc(-c3nc4ccccc4s3)c(N[C@@H]3CC(C(C)(C)O)[C@@H](O)[C@H]3O)n2)ccn1` (stereo in doubt) [Example 116, 5-(benzo[d]thiazol-2-yl)-6-(((1R,2S,3R,4R)-2,3-dihydroxy-4-(2-hydroxypropan-2-yl)cyclopentyl)amino)-2-((2-isopropoxypyridin-4-yl)amino)pyrimidine], with 7.72; and `COc1cccc(Nc2ncc(-c3nc4ccccc4s3)c(N[C@@H]3CC(C(C)(C)O)[C@@H](O)[C@H]3O)n2)c1` (stereo in doubt) [Example 117, 5-(benzo[d]thiazol-2-yl)-6-(((1R,2S,3R,4R)-2,3-dihydroxy-4-(2-hydroxypropan-2-yl)cyclopentyl)amino)-2-((3-methoxyphenyl)amino)pyrimidine], with 7.70.
